pIC50: −log10 of the molar value.
These compounds were tested on NCI-H295R (assay: IC50 (antiproliferative, ATP content)). Settings: 48 h.
How it was run: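 Following overnight culture of adrenocortical carcinoma cells (1500 per well) in 1536-well plates with serum-free ITS-supplemented DMEM, library compounds were pin-transferred at 8 final concentrations from 0.6 nM to 46 µM. Incubation lasted 48 h at 37 °C, 5% CO2, and the CellTiter-Glo signal was read after 20 min at room temperature. Data were fitted with a four-parameter logistic model. Each IC50 came from that fit after normalisation to vehicle and positive-control wells, and compounds without a concentration response were reported as above the top dose.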

pIC50	Compound
< 4.34	O=C1NS(=O)(=O)c2ccccc21
< 4.34	C=C[C@@]1(C)CC(=O)[C@]2(O)[C@@]3(C)[C@@H](O)CCC(C)(C)[C@@H]3[C@H](O)[C@H](OC(C)=O)[C@@]2(C)O1

Compound	pIC50
CCOc1ccc2c3c1O[C@H]1[C@@H](O)C=C[C@H]4[C@@H](C2)N(C)CC[C@@]341	< 4.34

The compounds below were run on NCI-H295R (assay: maximal response (efficacy) relative to DMSO (0%) and doxorubicin (-100%); higher = less growth inhibition). Settings: 48 h.

Compound	maximal response
CC(C)c1c(C(=O)Nc2ccccc2)c(-c2ccccc2)c(-c2ccc(F)cc2)n1CC[C@@H](O)C[C@@H](O)CC(=O)[O-].CC(C)c1c(C(=O)Nc2ccccc2)c(-c2ccccc2)c(-c2ccc(F)cc2)n1CC[C@@H](O)C[C@@H](O)CC(=O)[O-].[Ca+2]	-29.1%
COc1c(C)c2c(c(O)c1CC=C(C)CCC(=O)OCCN1CCOCC1)C(=O)OC2	-54.6%
C[C@@H]1CCC2[C@@H](C)[C@@H](O)O[C@@H]3O[C@@]4(C)CC[C@@H]1[C@@]23OO4 (stereo not given in full)	-56.4%
Nc1ccc(O)c(C(=O)O)c1	-20.8%
COc1cccc(N(C)C(=S)Oc2ccc3c(c2)CCCC3)n1	-47.1%
CCOc1ccc(Cc2nccc3cc(OCC)c(OCC)cc23)cc1OCC.Cl	-39.5%
O=C2N(CCC8)[C@]8([H])[C@@](O[C@](C)1N[C@]([C@@H]6C=C([C@]7([H])N(C)C6)C5=C4C(C7)=CNC4=CC=C5)=O)(O)N([C@H]2CC3=CC=CC=C3)C1=O.O=C%10N(CCC%16)[C@]%16([H])[C@@](O[C@](C)9N[C@]([C@@H]%14C=C([C@]%15([H])N(C)C%14)C%13=C%12C(C%15)=CNC%12=CC=C%13)=O)(O)N([C@H]%10CC%11=CC=CC=C%11)C9=O.O[C@@H](C(O)=O)[C@@H](O)C([O-])=O	-31.1%
CCCOc1ccc2nc(NC(=O)OC)sc2c1	-48.5%
Cc1cc2nc3c(=O)[nH]c(=O)nc-3n(C[C@H](O)[C@H](O)[C@H](O)COP(=O)([O-])OP(=O)([O-])OC[C@H]3O[C@@H](n4cnc5c(N)ncnc54)[C@H](O)[C@@H]3O)c2cc1C.[Na+].[Na+]	22%
N\1(C(N(C(CC)C)/N=C/1)=O)c7ccc(N2CCN(CC2)c6ccc(OC[C@@H]5O[C@](c3c(cc(cc3)Cl)Cl)(Cn4ncnc4)OC5)cc6)cc7 (stereo not given in full)	-23.1%
CCC(NC(C)C)C(O)c1ccc(O)c(O)c1.CS(=O)(=O)O (stereo not given)	-36%
O=C1c2ccccc2C(=O)C1c1ccccc1	-24.9%
COc1cc(C)c(Cc2cnc(N)nc2N)cc1OC	-57.4%
CN(Cc1ccc(C(C)(C)C)cc1)Cc1cccc2ccccc12	-43.8%
CC[C@@]1(O)C(=O)OCc2c1cc1n(c2=O)Cc2cc3c(CN(C)C)c(O)ccc3nc2-1.Cl	-36.8%
O=[C@@](OC)[C@](C(N3)=C(C4)C2=C3C=CC=C2)([C@@]5=CC([C@]69[C@]8([H])[C@](C=CCN8CC9)(CC)[C@@H](OC(C)=O)[C@](O)([C@](OC)=O)[C@@]([H])6N7C)=C7C=C5OC)C[C@]1([H])C=C(CC)CN4C1.O=C(O)C(O)C(O)C(O)=O.O=C(O)C(O)C(O)C(O)=O	-56.6%
CC1=CC(=O)[N-]S(=O)(=O)O1.[K+]	-79.3%
O=C(C4=CC(OC)=C(C(OC)=C4)OC)O[C@@H]1C[C@@]3([H])[C@@](C[C@](N5C3)([H])C2=C(CC5)C(C=CC=C6)=C6N2)([H])[C@H]([C@](OC)=O)[C@H]1OC	-51.8%
COc1cc(/C=C/C(=O)O[C@H]2CC[C@]34C[C@]35CC[C@]3(C)[C@@H]([C@H](C)CCC=C(C)C)CC[C@@]3(C)[C@@H]5CC[C@H]4C2(C)C)ccc1O	-40.3%
Cl.Cl.O=C1c2c(O)ccc(O)c2C(=O)c2c(NCCNCCO)ccc(NCCNCCO)c21	-59.3%
O=[C@@](OC)[C@](C(N3)=C4C2=C3C=CC=C2)([C@@]5=CC([C@]69[C@]8([H])[C@](C=CCN8CC9)(CC)[C@@H](OC(C)=O)[C@](O)([C@](OC)=O)[C@@]([H])6N7C=O)=C7C=C5OC)C[C@H]1C[C@](CC)(O)CN(CC4)C1	-44.6%
O=C(CCCCCCC(=O)Nc1ccccc1)NO	-37.1%

— the supplement of paper PMC3493320
